Test results taken from PMC7026418, “The kinase polypharmacology landscape of clinical PARP inhibitors” (Scientific Reports, 2020).
Like-named read-outs stand apart in the source and are kept apart here.

Columns and labels:
Assay in all cases: biochemical
Parameters in all cases: DiscoveRx KINOMEscan active site-directed competition binding; percent of control kinase bound to immobilised ligand
[1] = molecular target: EGFR(L747-E749del, A750P) (Homo sapiens, UniProt P00533, A750P/DEL747-749)
FGFR2 = FGFR2 (Homo sapiens, UniProt P21802)
FGFR2, sequence (P21802 whole entry): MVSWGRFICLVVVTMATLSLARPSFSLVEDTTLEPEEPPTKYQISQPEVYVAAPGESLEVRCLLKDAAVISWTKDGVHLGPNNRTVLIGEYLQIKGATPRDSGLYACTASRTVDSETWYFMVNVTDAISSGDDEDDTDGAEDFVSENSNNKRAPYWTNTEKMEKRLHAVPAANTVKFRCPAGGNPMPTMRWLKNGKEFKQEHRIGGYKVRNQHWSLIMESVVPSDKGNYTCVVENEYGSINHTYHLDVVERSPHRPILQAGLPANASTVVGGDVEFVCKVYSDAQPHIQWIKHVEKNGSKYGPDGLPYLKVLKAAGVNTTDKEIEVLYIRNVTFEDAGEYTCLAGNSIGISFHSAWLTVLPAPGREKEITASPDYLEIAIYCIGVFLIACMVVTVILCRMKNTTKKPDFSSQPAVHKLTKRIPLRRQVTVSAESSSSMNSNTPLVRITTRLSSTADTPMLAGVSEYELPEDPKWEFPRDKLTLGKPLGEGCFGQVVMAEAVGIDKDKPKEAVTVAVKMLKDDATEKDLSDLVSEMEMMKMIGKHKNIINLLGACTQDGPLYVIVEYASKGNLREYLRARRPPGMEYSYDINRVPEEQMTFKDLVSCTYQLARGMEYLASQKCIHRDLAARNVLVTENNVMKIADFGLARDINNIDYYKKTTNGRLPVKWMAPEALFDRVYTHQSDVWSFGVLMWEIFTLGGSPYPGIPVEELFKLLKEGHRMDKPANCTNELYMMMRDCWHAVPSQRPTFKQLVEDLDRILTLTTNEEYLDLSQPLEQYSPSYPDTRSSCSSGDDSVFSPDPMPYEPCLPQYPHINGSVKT

KIT(A829P) = KIT(A829P) (Homo sapiens, UniProt P10721, A829P)
KIT(A829P), sequence (P10721 whole entry A829P): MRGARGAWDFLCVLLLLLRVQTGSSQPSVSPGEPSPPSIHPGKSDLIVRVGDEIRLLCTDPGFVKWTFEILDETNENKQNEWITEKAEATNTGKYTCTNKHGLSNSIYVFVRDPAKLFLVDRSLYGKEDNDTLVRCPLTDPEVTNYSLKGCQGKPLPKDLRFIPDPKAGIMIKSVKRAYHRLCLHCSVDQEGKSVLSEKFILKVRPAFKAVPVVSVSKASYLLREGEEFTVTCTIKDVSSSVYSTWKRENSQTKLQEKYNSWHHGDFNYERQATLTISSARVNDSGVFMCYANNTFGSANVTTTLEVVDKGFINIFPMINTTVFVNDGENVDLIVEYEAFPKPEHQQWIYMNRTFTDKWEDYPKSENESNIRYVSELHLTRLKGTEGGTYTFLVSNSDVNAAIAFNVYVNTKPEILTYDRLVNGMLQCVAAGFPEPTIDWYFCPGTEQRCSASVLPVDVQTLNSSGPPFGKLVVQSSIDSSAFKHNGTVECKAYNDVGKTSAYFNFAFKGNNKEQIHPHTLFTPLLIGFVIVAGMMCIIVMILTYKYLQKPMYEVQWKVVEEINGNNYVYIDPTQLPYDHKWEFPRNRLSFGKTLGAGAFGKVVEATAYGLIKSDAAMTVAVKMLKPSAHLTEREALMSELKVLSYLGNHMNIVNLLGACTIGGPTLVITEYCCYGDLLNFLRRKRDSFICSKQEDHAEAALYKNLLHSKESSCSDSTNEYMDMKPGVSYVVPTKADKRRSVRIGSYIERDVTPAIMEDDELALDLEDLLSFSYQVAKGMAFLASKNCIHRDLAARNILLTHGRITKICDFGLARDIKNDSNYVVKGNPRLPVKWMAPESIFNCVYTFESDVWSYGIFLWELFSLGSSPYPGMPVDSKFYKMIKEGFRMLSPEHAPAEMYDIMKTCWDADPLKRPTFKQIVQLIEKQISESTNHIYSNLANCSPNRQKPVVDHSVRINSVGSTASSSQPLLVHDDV

LATS1 = molecular target: T1, LATS1 (Homo sapiens, UniProt O95835)
T1 sequence (O95835 1-1130): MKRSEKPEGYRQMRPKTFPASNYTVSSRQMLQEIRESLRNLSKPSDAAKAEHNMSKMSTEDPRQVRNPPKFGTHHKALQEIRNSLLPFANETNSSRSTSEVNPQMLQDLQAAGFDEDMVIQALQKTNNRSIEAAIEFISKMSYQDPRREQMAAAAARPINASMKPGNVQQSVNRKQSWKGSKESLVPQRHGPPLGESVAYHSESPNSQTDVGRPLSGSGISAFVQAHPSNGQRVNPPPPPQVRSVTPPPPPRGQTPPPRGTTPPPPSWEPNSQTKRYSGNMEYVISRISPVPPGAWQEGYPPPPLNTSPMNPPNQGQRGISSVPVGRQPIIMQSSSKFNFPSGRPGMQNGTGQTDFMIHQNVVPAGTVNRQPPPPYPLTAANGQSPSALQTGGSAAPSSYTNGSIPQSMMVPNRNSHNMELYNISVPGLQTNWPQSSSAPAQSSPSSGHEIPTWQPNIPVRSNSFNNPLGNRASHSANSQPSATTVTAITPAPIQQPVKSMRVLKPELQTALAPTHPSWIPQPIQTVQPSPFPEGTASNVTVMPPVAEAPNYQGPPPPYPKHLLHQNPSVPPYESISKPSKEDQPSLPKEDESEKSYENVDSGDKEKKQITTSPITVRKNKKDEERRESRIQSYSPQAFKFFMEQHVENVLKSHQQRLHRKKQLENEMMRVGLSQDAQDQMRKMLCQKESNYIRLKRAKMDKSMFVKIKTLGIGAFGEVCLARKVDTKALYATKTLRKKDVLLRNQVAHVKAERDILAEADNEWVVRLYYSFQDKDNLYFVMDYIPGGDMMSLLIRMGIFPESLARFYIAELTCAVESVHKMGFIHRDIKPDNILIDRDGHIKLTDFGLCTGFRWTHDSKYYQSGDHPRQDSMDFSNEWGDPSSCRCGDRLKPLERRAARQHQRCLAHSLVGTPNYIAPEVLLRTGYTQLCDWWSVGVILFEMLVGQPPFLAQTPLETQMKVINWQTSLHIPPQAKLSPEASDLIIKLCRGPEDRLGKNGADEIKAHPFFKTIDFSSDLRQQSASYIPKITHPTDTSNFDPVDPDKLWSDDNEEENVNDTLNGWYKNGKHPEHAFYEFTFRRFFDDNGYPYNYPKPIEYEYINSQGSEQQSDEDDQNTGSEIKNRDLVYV

MAP4K2 = molecular target: T2, MAP4K2 (Homo sapiens, UniProt Q12851)
T2 sequence (Q12851 1-820): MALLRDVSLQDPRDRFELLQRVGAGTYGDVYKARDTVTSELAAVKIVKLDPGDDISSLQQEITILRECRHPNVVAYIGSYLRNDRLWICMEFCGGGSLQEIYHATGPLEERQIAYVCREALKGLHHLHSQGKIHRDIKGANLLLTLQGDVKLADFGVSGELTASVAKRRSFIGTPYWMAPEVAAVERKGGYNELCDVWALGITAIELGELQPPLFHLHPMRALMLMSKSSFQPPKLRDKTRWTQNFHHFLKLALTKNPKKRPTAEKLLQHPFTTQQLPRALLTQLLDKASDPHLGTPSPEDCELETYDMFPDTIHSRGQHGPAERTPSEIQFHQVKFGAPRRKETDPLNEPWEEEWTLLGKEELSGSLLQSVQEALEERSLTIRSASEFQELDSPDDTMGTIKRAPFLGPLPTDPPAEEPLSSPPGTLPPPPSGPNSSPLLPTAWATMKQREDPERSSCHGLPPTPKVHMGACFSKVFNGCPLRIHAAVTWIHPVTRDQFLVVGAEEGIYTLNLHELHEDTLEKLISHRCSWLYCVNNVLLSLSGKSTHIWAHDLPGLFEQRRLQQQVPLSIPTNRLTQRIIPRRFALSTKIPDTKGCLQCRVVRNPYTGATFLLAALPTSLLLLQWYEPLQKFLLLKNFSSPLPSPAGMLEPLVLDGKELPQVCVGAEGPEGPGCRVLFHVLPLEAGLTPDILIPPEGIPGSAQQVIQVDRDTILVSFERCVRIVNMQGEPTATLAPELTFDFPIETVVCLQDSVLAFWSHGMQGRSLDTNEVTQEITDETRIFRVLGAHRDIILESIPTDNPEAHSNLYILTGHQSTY

TRKA = molecular target: T3, TRKA (Homo sapiens, UniProt P04629)
T3 construct: gene NTRK1
T3 sequence (P04629 whole entry): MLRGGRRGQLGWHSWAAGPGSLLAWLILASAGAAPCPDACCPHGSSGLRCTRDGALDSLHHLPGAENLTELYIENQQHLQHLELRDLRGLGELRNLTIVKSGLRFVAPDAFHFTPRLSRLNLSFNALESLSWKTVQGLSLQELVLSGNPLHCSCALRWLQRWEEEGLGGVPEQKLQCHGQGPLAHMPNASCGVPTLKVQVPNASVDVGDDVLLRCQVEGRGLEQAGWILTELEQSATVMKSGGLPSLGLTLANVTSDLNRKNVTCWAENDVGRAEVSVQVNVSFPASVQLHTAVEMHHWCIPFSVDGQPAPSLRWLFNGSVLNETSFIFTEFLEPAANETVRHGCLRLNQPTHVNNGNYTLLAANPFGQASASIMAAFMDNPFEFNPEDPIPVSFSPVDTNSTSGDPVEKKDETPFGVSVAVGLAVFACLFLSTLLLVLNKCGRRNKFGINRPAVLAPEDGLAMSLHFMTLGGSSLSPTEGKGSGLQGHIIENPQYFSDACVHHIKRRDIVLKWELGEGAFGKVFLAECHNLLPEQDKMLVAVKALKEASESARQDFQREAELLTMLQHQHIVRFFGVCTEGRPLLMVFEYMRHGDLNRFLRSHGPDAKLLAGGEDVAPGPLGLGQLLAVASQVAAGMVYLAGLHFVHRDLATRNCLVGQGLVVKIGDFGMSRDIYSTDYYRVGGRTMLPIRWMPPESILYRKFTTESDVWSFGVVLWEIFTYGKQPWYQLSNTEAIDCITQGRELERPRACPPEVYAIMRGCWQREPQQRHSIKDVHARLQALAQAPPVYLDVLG

[2] = read-out: Niraparib (MK-4827) / %Ctrl @ 10000nM
[3] = read-out: Olaparib / %Ctrl @ 10000nM
[4] = read-out: Rucaparib / %Ctrl @ 10000nM, binding competition, % of control
[5] = read-out: Talazoparib (BMN 673) / %Ctrl @ 10000nM

EGFR(L747-E749del, A750P), sequence (P00533 with tags, fused parts or gaps DEL747-749/A750P): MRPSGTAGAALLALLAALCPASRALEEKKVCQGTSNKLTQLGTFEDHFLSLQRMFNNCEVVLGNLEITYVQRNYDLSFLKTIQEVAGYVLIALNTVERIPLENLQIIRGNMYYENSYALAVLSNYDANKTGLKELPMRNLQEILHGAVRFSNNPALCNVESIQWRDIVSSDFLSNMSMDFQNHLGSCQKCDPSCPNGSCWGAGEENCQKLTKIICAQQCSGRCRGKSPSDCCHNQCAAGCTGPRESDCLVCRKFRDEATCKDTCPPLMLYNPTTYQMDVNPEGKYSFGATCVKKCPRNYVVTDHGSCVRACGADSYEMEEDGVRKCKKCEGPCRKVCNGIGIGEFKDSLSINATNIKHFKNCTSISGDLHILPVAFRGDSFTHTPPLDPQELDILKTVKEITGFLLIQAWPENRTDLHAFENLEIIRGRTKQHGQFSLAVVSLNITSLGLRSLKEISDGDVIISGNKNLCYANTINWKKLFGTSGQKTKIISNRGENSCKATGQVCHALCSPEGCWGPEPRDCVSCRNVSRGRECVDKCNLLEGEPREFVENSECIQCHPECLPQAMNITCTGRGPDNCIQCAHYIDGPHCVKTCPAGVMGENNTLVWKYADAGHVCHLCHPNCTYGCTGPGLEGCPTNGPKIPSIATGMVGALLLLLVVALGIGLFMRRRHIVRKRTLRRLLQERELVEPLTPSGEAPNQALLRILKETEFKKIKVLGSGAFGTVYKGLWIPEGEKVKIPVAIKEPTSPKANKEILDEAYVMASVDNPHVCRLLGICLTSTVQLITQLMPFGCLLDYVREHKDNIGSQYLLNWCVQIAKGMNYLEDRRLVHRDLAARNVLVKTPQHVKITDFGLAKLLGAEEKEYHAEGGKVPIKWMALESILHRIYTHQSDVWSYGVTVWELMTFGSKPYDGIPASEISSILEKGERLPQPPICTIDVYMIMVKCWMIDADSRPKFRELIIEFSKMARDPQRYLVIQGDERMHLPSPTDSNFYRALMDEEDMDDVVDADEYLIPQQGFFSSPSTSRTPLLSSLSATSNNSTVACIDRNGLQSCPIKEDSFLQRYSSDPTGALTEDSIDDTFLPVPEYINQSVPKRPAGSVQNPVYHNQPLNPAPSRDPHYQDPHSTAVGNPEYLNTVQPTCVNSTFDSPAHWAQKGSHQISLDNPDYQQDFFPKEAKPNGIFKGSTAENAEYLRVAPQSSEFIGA

NC(=O)c1cccc2cn(-c3ccc([C@@H]4CCCNC4)cc3)nc12 [Niraparib]
percent of control binding at 10 µM [1, 2]: 65% | percent of control binding at 10 µM (FGFR2; [2]): 100% | percent of control binding at 10 µM (KIT(A829P); [2]): 98% | percent of control binding at 10 µM (LATS1; [2]): 36% | percent of control binding at 10 µM (MAP4K2; [2]): 83% | percent of control binding at 10 µM (TRKA; [2]): 99%

O=C(c1cc(Cc2n[nH]c(=O)c3ccccc23)ccc1F)N1CCN(C(=O)C2CC2)CC1 [Olaparib]
percent of control binding at 10 µM [1, 3]: 82% | percent of control binding at 10 µM (FGFR2; [3]): 100% | percent of control binding at 10 µM (LATS1; [3]): 78% | percent of control binding at 10 µM (MAP4K2; [3]): 97% | percent of control binding at 10 µM (TRKA; [3]): 91%

CNCc1ccc(-c2[nH]c3cc(F)cc4c3c2CCNC4=O)cc1 [Rucaparib]
percent of control binding at 10 µM [1, 4]: 98% | percent of control binding at 10 µM (FGFR2; [4]): 99% | percent of control binding at 10 µM (KIT(A829P); [4]): 88% | percent of control binding at 10 µM (LATS1; [4]): 75% | percent of control binding at 10 µM (MAP4K2; [4]): 79% | percent of control binding at 10 µM (TRKA; [4]): 74%

Cn1ncnc1[C@H]1c2n[nH]c(=O)c3cc(F)cc(c23)N[C@@H]1c1ccc(F)cc1 [Talazoparib]
percent of control binding at 10 µM [1, 5]: 96% | percent of control binding at 10 µM (FGFR2; [5]): 100% | percent of control binding at 10 µM (KIT(A829P); [5]): 100% | percent of control binding at 10 µM (LATS1; [5]): 92% | percent of control binding at 10 µM (MAP4K2; [5]): 94% | percent of control binding at 10 µM (TRKA; [5]): 100%
